In PubChem BioAssay (NCI):
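A five-concentration, 48-hour dose response in 96-well plates underlies each endpoint, interpolated linearly between surrounding concentrations. GI50 is the concentration that inhibits growth by half. TGI: total growth inhibition.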

Tests used:
Assay in all cases: inhibition of tumour cell growth, NCI panel, 48 h
786-0 renal = system: 786-0 renal
A498 renal = system: A498 renal
A549 NSCLC = system: A549 NSCLC
ACHN renal = system: ACHN renal
BT-549 breast = system: BT-549 breast
CAKI-1 renal = system: CAKI-1 renal
CCRF-CEM leukemia = system: CCRF-CEM leukemia
COLO 205 colon = system: COLO 205 colon
DU-145 prostate = system: DU-145 prostate
EKVX NSCLC = system: EKVX NSCLC
HCC-2998 colon = system: HCC-2998 colon
HCT-116 colon = system: HCT-116 colon
HCT-15 colon = system: HCT-15 colon
HL-60(TB) leukemia = system: HL-60(TB) leukemia
HOP-62 NSCLC = system: HOP-62 NSCLC
HOP-92 NSCLC = system: HOP-92 NSCLC
HS 578T breast = system: HS 578T breast
HT29 colon = system: HT29 colon
IGROV1 ovarian = system: IGROV1 ovarian
K-562 leukemia = system: K-562 leukemia
KM12 colon = system: KM12 colon
LOX IMVI melanoma = system: LOX IMVI melanoma
M14 melanoma = system: M14 melanoma
MALME-3M melanoma = system: MALME-3M melanoma
MCF7 breast = system: MCF7 breast
MDA-MB-231 breast = system: MDA-MB-231 breast
MDA-MB-435 = system: MDA-MB-435
MOLT-4 leukemia = system: MOLT-4 leukemia
NCI-H226 lung = system: NCI-H226 lung
NCI-H23 lung = system: NCI-H23 lung
NCI-H460 lung = system: NCI-H460 lung
NCI-H522 lung = system: NCI-H522 lung
NCI/ADR-RES ovarian = system: NCI/ADR-RES ovarian
OVCAR-3 ovarian = system: OVCAR-3 ovarian
OVCAR-4 ovarian = system: OVCAR-4 ovarian
OVCAR-5 ovarian = system: OVCAR-5 ovarian
OVCAR-8 ovarian = system: OVCAR-8 ovarian
PC-3 prostate = system: PC-3 prostate
RPMI-8226 leukemia = system: RPMI-8226 leukemia
RXF 393 renal = system: RXF 393 renal
SF-268 CNS = system: SF-268 CNS
SF-295 CNS = system: SF-295 CNS
SF-539 CNS = system: SF-539 CNS
SK-MEL-2 melanoma = system: SK-MEL-2 melanoma
SK-MEL-28 melanoma = system: SK-MEL-28 melanoma
SK-MEL-5 melanoma = system: SK-MEL-5 melanoma
SK-OV-3 ovarian = system: SK-OV-3 ovarian
SN12C renal = system: SN12C renal
SNB-19 CNS = system: SNB-19 CNS
SNB-75 CNS = system: SNB-75 CNS
SR leukemia = system: SR leukemia
SW-620 colon = system: SW-620 colon
TK-10 renal = system: TK-10 renal
U251 CNS = system: U251 CNS
UACC-257 melanoma = system: UACC-257 melanoma
UACC-62 melanoma = system: UACC-62 melanoma
UO-31 renal = system: UO-31 renal

CNCCC/C=C1\c2cc3c(cc2-c2c1c1cc(OC)c(OC)cc1c(=O)n2C)OCO3
GI50 (786-0 renal): 259 nM | TGI (786-0 renal): 2310 nM | GI50 (A498 renal): < 32.7 nM | TGI (A498 renal): 341 nM | GI50 (A549 NSCLC): 1310 nM | TGI (A549 NSCLC): > 24500 nM | GI50 (ACHN renal): 245 nM | TGI (ACHN renal): 1040 nM | GI50 (BT-549 breast): 455 nM | TGI (BT-549 breast): 4330 nM | GI50 (CAKI-1 renal): 269 nM | TGI (CAKI-1 renal): 1480 nM | GI50 (CCRF-CEM leukemia): 843 nM | TGI (CCRF-CEM leukemia): 10900 nM | GI50 (COLO 205 colon): 1130 nM | GI50 (DU-145 prostate): 1070 nM | TGI (DU-145 prostate): 5500 nM | GI50 (EKVX NSCLC): 1310 nM | TGI (EKVX NSCLC): 5700 nM | GI50 (HCC-2998 colon): 226 nM | TGI (HCC-2998 colon): 2470 nM | GI50 (HCT-116 colon): 399 nM | TGI (HCT-116 colon): 1900 nM | GI50 (HCT-15 colon): 1150 nM | TGI (HCT-15 colon): 6770 nM | GI50 (HL-60(TB) leukemia): 2220 nM | TGI (HL-60(TB) leukemia): 12000 nM | GI50 (HOP-62 NSCLC): 590 nM | TGI (HOP-62 NSCLC): 3970 nM | GI50 (HOP-92 NSCLC): 347 nM | TGI (HOP-92 NSCLC): 5430 nM | GI50 (HS 578T breast): 3170 nM | TGI (HS 578T breast): 30300 nM | GI50 (HT29 colon): 658 nM | TGI (HT29 colon): 12000 nM | GI50 (IGROV1 ovarian): 487 nM | GI50 (K-562 leukemia): 493 nM | TGI (K-562 leukemia): 5870 nM | GI50 (KM12 colon): 1920 nM | TGI (KM12 colon): 18100 nM | GI50 (LOX IMVI melanoma): 322 nM | TGI (LOX IMVI melanoma): 1740 nM | GI50 (M14 melanoma): 1140 nM | TGI (M14 melanoma): 9400 nM | GI50 (MALME-3M melanoma): 807 nM | TGI (MALME-3M melanoma): 5980 nM | GI50 (MCF7 breast): 244 nM | TGI (MCF7 breast): 813 nM | GI50 (MDA-MB-231 breast): 1030 nM | TGI (MDA-MB-231 breast): 5310 nM | GI50 (MDA-MB-435): 1960 nM | TGI (MDA-MB-435): 13400 nM | GI50 (MOLT-4 leukemia): 137 nM | TGI (MOLT-4 leukemia): 405 nM | GI50 (NCI-H226 lung): 509 nM | TGI (NCI-H226 lung): 2090 nM | GI50 (NCI-H23 lung): 1070 nM | TGI (NCI-H23 lung): 5310 nM | GI50 (NCI-H460 lung): 331 nM | GI50 (NCI-H522 lung): 611 nM | GI50 (NCI/ADR-RES ovarian): 1530 nM | TGI (NCI/ADR-RES ovarian): 10300 nM | GI50 (OVCAR-3 ovarian): 985 nM | TGI (OVCAR-3 ovarian): 4120 nM | GI50 (OVCAR-4 ovarian): 7990 nM | TGI (OVCAR-4 ovarian): 44300 nM | GI50 (OVCAR-5 ovarian): 1380 nM | TGI (OVCAR-5 ovarian): 8890 nM | GI50 (OVCAR-8 ovarian): 2460 nM | TGI (OVCAR-8 ovarian): 19800 nM | GI50 (PC-3 prostate): 1120 nM | TGI (PC-3 prostate): 10600 nM | GI50 (RPMI-8226 leukemia): 1240 nM | TGI (RPMI-8226 leukemia): 7940 nM | GI50 (RXF 393 renal): 105 nM | TGI (RXF 393 renal): 958 nM | GI50 (SF-268 CNS): 521 nM | TGI (SF-268 CNS): 10000 nM | GI50 (SF-295 CNS): 322 nM | TGI (SF-295 CNS): 2270 nM | GI50 (SF-539 CNS): 144 nM | TGI (SF-539 CNS): 558 nM | GI50 (SK-MEL-2 melanoma): 6920 nM | TGI (SK-MEL-2 melanoma): > 42400 nM | GI50 (SK-MEL-28 melanoma): 1400 nM | TGI (SK-MEL-28 melanoma): 7990 nM | GI50 (SK-MEL-5 melanoma): 435 nM | TGI (SK-MEL-5 melanoma): 1690 nM | GI50 (SK-OV-3 ovarian): 1870 nM | GI50 (SN12C renal): 858 nM | TGI (SN12C renal): 5310 nM | GI50 (SNB-19 CNS): 883 nM | TGI (SNB-19 CNS): 24700 nM | GI50 (SNB-75 CNS): 1260 nM | TGI (SNB-75 CNS): 11900 nM | GI50 (SR leukemia): 211 nM | TGI (SR leukemia): 581 nM | GI50 (SW-620 colon): 793 nM | TGI (SW-620 colon): 19500 nM | GI50 (TK-10 renal): 1830 nM | TGI (TK-10 renal): 9830 nM | GI50 (U251 CNS): 305 nM | TGI (U251 CNS): 4030 nM | GI50 (UACC-257 melanoma): 3090 nM | TGI (UACC-257 melanoma): > 100000 nM | GI50 (UACC-62 melanoma): 248 nM | TGI (UACC-62 melanoma): 1380 nM | GI50 (UO-31 renal): 750 nM
